Reference: US20110112308A1 (NOVARTIS AG, priority 2006, published 2011)
Where a name gives a salt, the structure may show the parent alone. Blank lines part the entries; values can stand above or below the molecule they belong to.

Experiments:
[1] = Solid samples held at 93% r.h. (XRPD, TGA); format: physicochemical; settings: for Solid State (EQ 93% r.h.) Crystallinity by XRPD: either 7 or 10 days
Experimental: An approximate solubility of the below-listed salts was determined in water and at pH 1 by suspending 5-15 mg of the salt in 1 mL of solvent. The samples were allowed to equilibrate at ambient temperature for at least 20 hours. The supernatant was filtered and used for the solubility determination, which was done gravimetrically, for the aqueous solubility, and by UV-VIS spectroscopy for pH 1. The solid residue was analyzed by XRPD. […] They were subsequently analyzed by XRPD and TGA, if the latter deemed necessary. Only irreversible or slowly reversible events can be detected.

[2] = Equilibration in solvents and buffers: form conversion
[3] = Intrinsic dissolution rate, rotation disk method; format: physicochemical
Experimental: Intrinsic Dissolution: […] […] Pellets of the other salts remained intact for at least several minutes enabling the determination of the intrinsic dissolution rate. Dissolution rate studies were performed using the rotation disk method ([…] Instrument). A single rotation speed of 200 r.p.m. was used to dissolve drug substance into a 500 mL vessel at 37° C. The solution was continuously pumped through a UV cell measurement and returned to the dissolution vessel.

[4] = Solubility, 24-hour equilibration at room temperature; format: physicochemical
Experimental: Aqueous Solubility: A carefully weighted amount (20-50 mg) of sample is dissolved in 1 ml of solvent with 24-hour equilibration at room temperature. The solubility was determined either gravimetrically or by UV-VIS spectrometry. The pH of the clear solution was also measured. However, the difficulty of determining salt solubilities in water should be stressed, since upon dissolution dissociation to the free form is possible, which affects both the solubility and the pH. It's not unlikely that attempts to make solutions of a salt at a concentration well below the reported solubility of the salt to be unsuccessful (for a full discussion see: M. Pudipeddi, A. T. M. Serajuddin, D. J. W. Grant, and P. H. Stahl in “Handbook of Pharmaceutical Salts Properties Selection and Use” page 27 and references therein).

[5] = Solution stability (HPLC); format: physicochemical
Experimental: (§1) All samples were prepared/diluted to a concentration of 0.2 mg/mL in methanol prior to analysis by HPLC. A freshly prepared sample of each salt was used as the reference standard for external standard calibration analysis.

[6] = Stability of mixtures with excipients; format: physicochemical
Experimental: as §1

Solid-state stability = format: physicochemical; settings: for Bulk stability (XRPD): 1 week
Experimental: as §1

[7] = Bulk stability, 2 weeks, 50° C.
[8] = Bulk stability, 2 weeks, 50° C./20% water
[9] = Bulk stability, 2 weeks, 50° C./75% r.h.
[10] = Light study, 1200 kLux (300-800 nm)
[11] = 2 mg/mL in methanol, 1 week at 50° C.
[12] = 2 mg/mL in water, 1 week at 50° C.
[13] = 2 mg/mL, 100 mM lactate buffer pH 3.5, 1 week at 50° C.
[14] = 2% in 0.5% HPMC 4000, 1 day at RT
[15] = 2% in 0.5% Klucel HF, 1 day at RT
[16] = 2% in 0.8% Tween 80, 1 day at RT
[17] = 5% solution, 1 day at RT (diluted 1:100 in pH 6.8 buffer)
[18] = Mixture 1: 50% PVP + 50% Crospovidone, 50° C./75% r.h., 2 weeks
[19] = Mixture 2: 50% Starch 1500 + 5% MCC 102, 50° C./75% r.h., 2 weeks
[20] = Mixture 3: 5% PVP + 5% Crospovidone + 10% Starch 1500 + 80% MCC 102, 50° C./75% r.h., 2 weeks
[21] = Mixture 4: 99% Lactose + 1% BHT/BHA, 50° C./75% r.h., 2 weeks
[22] = Mixture 5: 99% Mannitol + 1% BHT/BHA, 50° C./75% r.h., 2 weeks
[23] = Mixture 6: 50% Mannitol + 47% HPCLH21 + 1% BHT/BHA + 2% Magnesium Stearate, 50° C./75% r.h., 2 weeks
[24] = Mixture 7: 50% Cetyl Alcohol + 49% HPCLH21 + 1% Magnesium Stearate, 50° C./75% r.h., 2 weeks
[25] = Mixture 8: 100% PEG 3350, 50° C./75% r.h., 2 weeks

Solid State (EQ 93% r.h.) Form by XRPD ([1]; 10 days): No change
Molecule: Cc1[nH]c2ccccc2c1CCNCc1ccc(/C=C/C(=O)NO)cc1.O=C(O)c1cc(O)ccc1O [Gentisate, 1:1 gentisate salt of N-hydroxy-3-[4-[[[2-(2-methyl-1H-indol-3-yl)ethyl]amino]methyl]phenyl]-2E-2-propenamide]

conversion upon equilibration ([2]; 0.1 N HCl): to the hydrochloride salt
conversion upon equilibration ([2]; phosphate buffer (pH=6.8)): to the free base
conversion upon equilibration ([2]; water / aqueous solutions): converts to form B
Molecule: Cc1[nH]c2ccccc2c1CCNCc1ccc(/C=C/C(=O)NO)cc1 [Form A of the mesylate salt]

Solid State (EQ 93% r.h.) Crystallinity by XRPD [1]: Poor
Molecule: 1:1 propionate salt of N-hydroxy-3-[4-[[[2-(2-methyl-1H-indol-3-yl)ethyl]amino]methyl]phenyl]-2E-2-propenamide

Solid State (EQ 93% r.h.) Form by XRPD ([1]; 7 days): No change
Molecule: Cc1[nH]c2ccccc2c1CCNCc1ccc(/C=C/C(=O)NO)cc1.O=C(O)c1ccccc1 [Benzoate, 1:1 benzoate salt of N-hydroxy-3-[4-[[[2-(2-methyl-1H-indol-3-yl)ethyl]amino]methyl]phenyl]-2E-2-propenamide]

Intrinsic Dissolution Rate ([3]; 0.1N HCl (Table 19)): 0.13
Intrinsic Dissolution Rate ([3]; Water (Table 19)): 0.14
Intrinsic Dissolution Rate ([3]; pH = 4 (Table 19)): 0.09
Molecule: CC(O)C(=O)O.Cc1[nH]c2ccccc2c1CCNCc1ccc(/C=C/C(=O)NO)cc1 [Anhydrous DL-lactate salt, 1:1 anhydrous DL-lactate salt of N-hydroxy-3-[4-[[[2-(2-methyl-1H-indol-3-yl)ethyl]amino]methyl]phenyl]-2E-2-propenamide]

Solid State (EQ 93% r.h.) Form by XRPD ([1]; 10 days): No change
Molecule: Cc1[nH]c2ccccc2c1CCNCc1ccc(/C=C/C(=O)NO)cc1.Cc1[nH]c2ccccc2c1CCNCc1ccc(/C=C/C(=O)NO)cc1.O=C(O)CC(=O)O [Malonate, 2:1 malonate (hemi-malonate) salt of N-hydroxy-3-[4-[[[2-(2-methyl-1H-indol-3-yl)ethyl]amino]methyl]phenyl]-2E-2-propenamide]

aqueous solubility, in words [4]: excellent
stability characteristics, in words ([5]; both in solution and in the solid state): very good stability
intrinsic dissolution (rate), in words [3]: good
stability with all excipient mixtures tested, in words ([6]; after 2 weeks at 50° C./75% r.h.): very good stability
Molecule: CC(O)C(=O)O.Cc1[nH]c2ccccc2c1CCNCc1ccc(/C=C/C(=O)NO)cc1 [DL-lactate salt, lactate salt of N-hydroxy-3-[4-[[[2-(2-methyl-1H-indol-3-yl)ethyl]amino]methyl]phenyl]-2E-2-propenamide]

Solid State (EQ 93% r.h.) Crystallinity by XRPD [1]: Good
Solid State (EQ 93% r.h.) Form by XRPD ([1]; either 7 or 10 days (time not given)): converted to a new form
Solid State (EQ 93% r.h.) LOD by TGA ([1]; after 93% r.h. storage, (105° C.)): LOD = 8.8%
Molecule: CC(=O)O.Cc1[nH]c2ccccc2c1CCNCc1ccc(/C=C/C(=O)NO)cc1 [Acetate, 1:1 acetate salt of N-hydroxy-3-[4-[[[2-(2-methyl-1H-indol-3-yl)ethyl]amino]methyl]phenyl]-2E-2-propenamide]

Solid State (EQ 93% r.h.) Form by XRPD ([1]; 10 days): No change
Molecule: Cc1[nH]c2ccccc2c1CCNCc1ccc(/C=C/C(=O)NO)cc1.Cc1[nH]c2ccccc2c1CCNCc1ccc(/C=C/C(=O)NO)cc1.O=C(O)CCC(=O)O [Succinate, 2:1 succinate (hemi-succinate) salt of N-hydroxy-3-[4-[[[2-(2-methyl-1H-indol-3-yl)ethyl]amino]methyl]phenyl]-2E-2-propenamide]

Solid State (EQ 93% r.h.) Form by XRPD ([1]; 7 days): No change
Molecule: Cc1[nH]c2ccccc2c1CCNCc1ccc(/C=C/C(=O)NO)cc1.O=P(O)(O)O [Phosphate, 1:1 phosphate salt of N-hydroxy-3-[4-[[[2-(2-methyl-1H-indol-3-yl)ethyl]amino]methyl]phenyl]-2E-2-propenamide]

Solid State (EQ 93% r.h.) Form by XRPD ([1]; 10 days): No change
Molecule: Cc1[nH]c2ccccc2c1CCNCc1ccc(/C=C/C(=O)NO)cc1.Cc1[nH]c2ccccc2c1CCNCc1ccc(/C=C/C(=O)NO)cc1.O=C(O)/C=C/C(=O)O [Fumarate, 2:1 fumarate salt (hemi-fumarate) of N-hydroxy-3-[4-[[[2-(2-methyl-1H-indol-3-yl)ethyl]amino]methyl]phenyl]-2E-2-propenamide]

Bulk stability (XRPD) (Solid-state stability; 80° C.): no change
Bulk stability (XRPD) (Solid-state stability; 80° C./75% r.h.): no change
% DP (total degradation products) (Solid-state stability; [7]): 0.43 % area
assay (Solid-state stability; [7]): [99.31]
% DP (total degradation products) (Solid-state stability; [8]): 0.51 % area
assay (Solid-state stability; [8]): [100.3]
% DP (total degradation products) (Solid-state stability; [9]): 0.43 % area
assay (Solid-state stability; [9]): [99.86]
% DP (total degradation products) (Solid-state stability; [10]): 1.68 % area
CL (appearance) (Solid-state stability; [10]): C (C = medium discoloration)
assay (Solid-state stability; [10]): [98.65]
pH of initial mixture ([5]; 2 mg/mL in 100 mM lactate buffer, pH 3.5): 3.57
% DP (total degradation products) [5, 11]: 0.71 % area
assay [5, 11]: [102.8]
pH of initial mixture ([5]; 2 mg/mL in water): 6.30
% DP (total degradation products) [5, 12]: 1.22 % area
CL (appearance) [5, 12]: A↓
assay [5, 12]: [98.85]
% DP (total degradation products) [5, 13]: 1.31 % area
CL (appearance) [5, 13]: A↓*
assay ([5]; 2 mg/mL, 100 mM lactate buffer pH 3.5, 1 week at 50° C., external standard): [99.12]
% DP (total degradation products) ([5]; 2% in 0.5% CMC, 1 day at RT): 0.49 % area
CL (appearance) ([5]; 2% in 0.5% CMC, 1 day at RT): A↓↓
assay ([5]; 2% in 0.5% CMC, 1 day at RT): [77.50]
% DP (total degradation products) [5, 14]: 0.41 % area
assay [5, 14]: [96.42]
% DP (total degradation products) [5, 15]: 0.43 % area
assay [5, 15]: [96.99]
% DP (total degradation products) [5, 16]: 0.42 % area
assay [5, 16]: [95.06]
% DP (total degradation products) [5, 17]: 0.52 % area
CL (appearance) [5, 17]: A↓
assay [5, 17]: [99.24]
Unstressed (% Area) ([5]; unstressed baseline of the stability study): 99.51% Area
Intrinsic Dissolution Rate ([3]; 0.1N HCl (Table 19)): 0.02
Intrinsic Dissolution Rate ([3]; Water (Table 19)): 0.06
Intrinsic Dissolution Rate ([3]; pH = 4 (Table 19)): 0.08
% DP (total degradation products) [6, 18]: 0.6 % area
% DS (drug substance) [6, 18]: 99.4 % area
% DP (total degradation products) [6, 19]: 0.4 % area
% DS (drug substance) [6, 19]: 99.6 % area
% DP (total degradation products) [6, 20]: 0.5 % area
% DS (drug substance) [6, 20]: 99.5 % area
% DP (total degradation products) [6, 21]: 0.5 % area
% DS (drug substance) [6, 21]: 99.5 % area
% DP (total degradation products) [6, 22]: 0.5 % area
% DS (drug substance) [6, 22]: 99.5 % area
% DP (total degradation products) [6, 23]: 0.6 % area
% DS (drug substance) [6, 23]: 99.3 % area
% DP (total degradation products) [6, 24]: 0.5 % area
% DS (drug substance) [6, 24]: 99.5 % area
% DP (total degradation products) [6, 25]: 0.6 % area
% DS (drug substance) [6, 25]: 99.4 % area
% DP (total degradation products) ([6]; Standard, freshly prepared): 0.4 % area
% DS (drug substance) ([6]; Standard, freshly prepared): 99.6 % area
Molecule: CC(O)C(=O)O.Cc1[nH]c2ccccc2c1CCNCc1ccc(/C=C/C(=O)NO)cc1.O (racemic) [Monohydrate DL-lactate salt, 1:1 monohydrate DL-lactate salt of N-hydroxy-3-[4-[[[2-(2-methyl-1H-indol-3-yl)ethyl]amino]methyl]phenyl]-2E-2-propenamide]
